Values quoted from earlier work as cited in patent US20170000414A1, “Use of Blood Flow Parameters to Monitor or Control the Dosing of Anti-Platelet Agents” (RHEOVECTOR, LLC, priority 2014, published 2017).

Assays:
[1] = aspirin 81 mg; healthy individuals
[2] = 18,624 patients having prior acute coronary syndrome

CC(=O)Oc1ccccc1C(=O)O [Aspirin, acetylsalicylic acid]
effect on blood viscosity [1]: no significant effect

CCCSc1nc(N[C@@H]2C[C@H]2c2ccc(F)c(F)c2)c2nnn([C@@H]3C[C@H](OCCO)[C@@H](O)[C@H]3O)c2n1 [Ticagrelor]
rate of cardiovascular disease (CVD) events and death compared with clopidogrel [2]: reduce significantly

COC(=O)[C@H](c1ccccc1Cl)N1CCc2sccc2C1 [clopidogrel]
reducing CVD events or death, compared with aspirin 325 mg (clopidogrel 75 mg, 19,185 patients with atherosclerosis (symptomatic PAD, recent ischemic stroke or MI)): more effective
relative risk reduction (group entering the trial with symptomatic PAD, p=0.0028): 23.8%
reduction in MI, stroke or cardiovascular death rates (patients who entered the trial with an ischemic stroke or MI): no reduction
